One data set deals with johnsongrass. Briefly: Field experiment, johnsongrass control with glufosinate + additive at 10 pm (Example 5, FIG. 12). The data set is classed as in vivo.
The subject of another data set is Palmer amaranth. The data set is described as follows: Field experiment, Palmer amaranth control with glufosinate + additive at 10 pm (Example 5, FIG. 11). The data set is classed as in vivo, Amaranthus palmeri.
Data set [1] concerns Enlist cotton, XtendFlex cotton, LibertyLink GT27 soybean, and LibertyLink corn. The following applies: in vivo.
Data set [2] has the same test system. The following applies: in vivo. The source holds these as a separate data set.
For data set [3], the system named is native large crabgrass populations. The data set is described as follows: Field experiment, large crabgrass control (Examples 2 and 3, FIG. 6). The following applies: added to glufosinate 655 g ai/ha; saflufenacil 1 g ai/ha, acifluorfen 14 g ai/ha; 10 pm. The data set is classed as in vivo.
Data set [4] concerns native mixture of Palmer amaranth and waterhemp. More on the design: species or system Amaranthus palmeri, Amaranthus tuberculatus. The following applies: in vivo.

Here are results for 4 compounds from US12219958B2, “Glufosinate additive for improved weed control” (THE BOARD OF TRUSTEES OF THE UNIVERSITY OF ARKANSAS, priority 2019, dated 2025).

Structures can show the parent of a compound that is named as a salt.

On to `CCOP(=S)(OCC)Oc1nc(Cl)c(Cl)cc1Cl` [Chlorpyrifos, O,O-Diethyl O-3,5,6-trichloropyridin-2-yl phosphorothioate], for which, in the data set on johnsongrass (in vivo), the “increase in glufosinate efficacy of johnsongrass” value is “greatest increase”. Further, the “increase in glufosinate efficacy of Palmer amaranth” value in the data set with Palmer amaranth (in vivo) is reported as “greatest increase”. Besides, in data set [1], the crop response entry is listed as “not eliciting a negative crop response”.

For the compound `CCOC(=O)/C=C\C(=O)OCC` [diethyl maleate], the “increase in glufosinate efficacy of johnsongrass” value with johnsongrass (low-light conditions (10 pm), glufosinate 655 g ai/ha + additive 280 g ai/ha, 15 to 20-cm tall johnsongrass) was “greatest increase”. Moreover, the “increase in glufosinate efficacy of Palmer amaranth” value in the data set with Palmer amaranth (low-light conditions (10 pm), glufosinate 655 g ai/ha + additive 280 g ai/ha, 25 to 30-cm tall Palmer amaranth) is listed as “greatest increase”.

As for `O=C(O)c1cc(Oc2ccc(C(F)(F)F)cc2Cl)ccc1[N+](=O)[O-]` [acifluorfen], the “crop impact of glufosinate and the additive applied during the day” value in data set [2] was “negatively impacted at least one of the crops”. Moreover, in data set [2], the “crop injury when applied at 10 pm versus 10 am” value is listed as “less”. Besides, the “effect of the additive on reductions in weed control due to low-light intensity” value (shortened to “effect of the additive on reductions”) in data set [3] and in data set [4] was “did not alleviate reductions in weed control” in each case.

Regarding `CC(C)N(C)S(=O)(=O)NC(=O)c1cc(-n2c(=O)cc(C(F)(F)F)n(C)c2=O)c(F)cc1Cl` [saflufenacil, N′-{2-Chloro-4-fluoro-5-[1,2,3,6-tetrahydro-3-methyl-2,6-dioxo-4-(trifluoromethyl)pyrimidin-1-yl]benzoyl}-N-isopropyl-N-methylsulfamide], in data set [2], the “crop impact of glufosinate and the additive applied during the day” value is on record as “negatively impacted at least one of the crops”; the “crop injury when applied at 10 pm versus 10 am” value is “less”. The “effect of the additive on reductions” value in data set [3] was “did not alleviate reductions in weed control”. Further, in data set [4], the “effect of the additive on reductions” value was “did not alleviate reductions in weed control”.
